Several values for one entry are separate records, joined by “and”; a condition that tells them apart may be missing. Equal entries are not always repeated.
Experiments:
[1] = target: T1, recombinant human PPARδ (GST-PPARδ) (Homo sapiens, UniProt Q03181); assay: Scintillation Proximity Assay, displacement of [3H2]Compound B from PPARδ; type: binding; details: human PPARδ binding; read-out: IC50 (μM: SPA or BND) Delta
T1 construct: The full length human cDNAs for PPARδ and PPARα were subcloned into the pGEX-KT expression vector; made in house; host or cells: E. coli
T1 sequence (Q03181 1-441): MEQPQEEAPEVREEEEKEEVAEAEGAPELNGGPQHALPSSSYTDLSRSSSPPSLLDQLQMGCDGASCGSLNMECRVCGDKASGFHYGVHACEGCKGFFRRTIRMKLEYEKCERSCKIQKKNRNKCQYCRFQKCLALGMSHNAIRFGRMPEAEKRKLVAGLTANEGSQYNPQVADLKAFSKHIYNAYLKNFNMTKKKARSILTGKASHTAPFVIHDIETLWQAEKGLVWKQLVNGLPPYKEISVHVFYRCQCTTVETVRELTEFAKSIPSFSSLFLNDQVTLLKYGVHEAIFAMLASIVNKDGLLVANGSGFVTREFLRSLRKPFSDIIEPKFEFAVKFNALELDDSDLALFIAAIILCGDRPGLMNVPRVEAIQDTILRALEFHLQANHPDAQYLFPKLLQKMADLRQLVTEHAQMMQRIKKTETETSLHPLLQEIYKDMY
From the text: As an approach to identifying human PPAR agonists, a Scintillation Proximity Assay was used to characterize PPAR-γ, PPAR-δ, and PPAR-α ligands.
Human PPARγ2, human PPARδ and human PPARα were expressed as GST-fusion proteins in E. coli. The full length human cDNA for PPARγ 2 was subcloned into the pGEX-2 T expression vector (Amersham Pharmacia Biotech, Inc.). The full length human cDNAs for PPARδ and PPARα were subcloned into the pGEX-KT expression vector (Amersham Pharmacia Biotech, Inc.). E. coli containing the respective plasmids were propagated, induced, and harvested by centrifugation. The resuspended pellet was broken in a French press and debris removed by centrifugation. Recombinant human PPAR receptors were purified by affinity chromatography on glutathione sepharose. After application to the column, and one wash, receptor was eluted with glutathione. Glycerol (10%) was added to stabilize the receptor and aliquots were stored at −80° C.
After incubation for ˜16 h at 15° C. with shaking, the assay plates were counted in a Packard Topcount with quench correction.

[2] = target: T2, hPPARα/GAL4 (Homo sapiens, UniProt Q07869); assay: Gal-4 hPPAR transactivation assay in COS-1 cells (alpha); type: cell-based; details: two values separated by a slash in some cells
T2 construct: expressed in transfected cells; host or cells: COS-1 cells
Procedure: (§1) The chimeric receptor expression constructs, pcDNA3-hPPARγ/GAL4, pcDNA3-hPPARδ/GAL4, pcDNA3-hPPARα/GAL4 were prepared by inserting the yeast GAL4 transcription factor DBD adjacent to the ligand binding domains (LBDs) of hPPARγ, hPPARδ, hPPARα, respectively. The reporter construct, pUAS(5×)-tk-luc was generated by inserting 5 copies of the GAL4 response element upstream of the herpes virus minimal thymidine kinase promoter and the luciferase reporter gene. pCMV-lacZ contains the galactosidase Z gene under the regulation of the cytomegalovirus promoter. COS-1 cells were seeded at 12×10^3 cells/well in 96 well cell culture plates in high glucose Dulbecco's modified Eagle medium (DMEM) containing 10% charcoal stripped fetal calf serum (Gemini Bio-Products, Calabasas, Calif.), nonessential amino acids, 100 units/ml Penicillin G and […] Streptomycin sulfate at 37° C. in a humidified atmosphere of 10% CO2. After 24 h, transfections were performed with Lipofectamine (GIBCO BRL, Gaithersburg, Md.) according to the instructions of the manufacturer. […] Luciferase activity in cell extracts was determined using Luciferase Assay Buffer (Promega, Madison, Wis.) in an ML3000 luminometer (Dynatech Laboratories, Chantilly, Va.). β-galactosidase activity was determined using β-D-galactopyranoside (Calbiochem, San Diego, Calif.).

[3] = target: T3, hPPARδ/GAL4 (Homo sapiens, UniProt Q03181); assay: Gal-4 hPPAR transactivation assay in COS-1 cells (delta); type: cell-based; details: two values separated by a slash in some cells
T3 construct: expressed in transfected cells; host or cells: COS-1 cells
Procedure: as §1

[4] = target: T4, hPPARγ/GAL4 (Homo sapiens, UniProt P37231); assay: Gal-4 hPPAR transactivation assay in COS-1 cells (gamma); type: cell-based; details: two values separated by a slash in some cells
T4 construct: expressed in transfected cells; host or cells: COS-1 cells
Procedure: as §1

[5] = system: PPAR-α, PPAR-γ and PPAR-δ; assay: Classification of ligands according to their PPAR activity (Table A); set-up: species or system human; details: classification based on IC50 and EC50 data of Table B

T4 sequence (P37231 238-503 limits assumed): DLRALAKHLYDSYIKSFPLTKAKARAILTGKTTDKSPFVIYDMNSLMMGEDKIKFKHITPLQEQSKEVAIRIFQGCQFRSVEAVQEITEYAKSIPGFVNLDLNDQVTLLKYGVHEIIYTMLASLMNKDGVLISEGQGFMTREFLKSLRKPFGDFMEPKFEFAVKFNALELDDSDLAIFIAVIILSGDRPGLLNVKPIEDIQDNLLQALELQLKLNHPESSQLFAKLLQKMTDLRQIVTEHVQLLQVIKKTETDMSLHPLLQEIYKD
T4 sequence (P04386 1-147 partner limits assumed): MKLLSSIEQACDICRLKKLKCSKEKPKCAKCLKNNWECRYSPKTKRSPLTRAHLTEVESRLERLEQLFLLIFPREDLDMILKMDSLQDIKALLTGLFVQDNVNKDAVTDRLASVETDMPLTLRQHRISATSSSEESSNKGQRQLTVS
T2 sequence (Q07869 239-466 limits assumed): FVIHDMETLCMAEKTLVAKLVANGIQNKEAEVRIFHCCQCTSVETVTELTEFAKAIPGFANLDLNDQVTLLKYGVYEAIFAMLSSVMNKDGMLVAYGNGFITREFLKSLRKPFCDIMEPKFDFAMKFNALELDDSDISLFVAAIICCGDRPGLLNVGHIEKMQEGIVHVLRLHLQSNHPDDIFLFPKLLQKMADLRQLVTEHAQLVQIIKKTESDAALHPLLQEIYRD
T2 sequence (P04386 1-147 partner limits assumed): as the sequence (P04386 1-147 partner limits assumed) above
T3 sequence (P04386 1-147 partner limits assumed, one chain of several): as the sequence (P04386 1-147 partner limits assumed) above

IC50 [1]: 15 µM | EC50 [2]: 1.05 µM and 1.2 µM | EC50 [3]: 3 µM | EC50 [4]: 0.18 µM and 0.05 µM
SMILES: CCCc1cc(Oc2ccccc2)ccc1OCCc1cc2cc(CC(=O)O)ccc2[nH]1 [Compound 2, {2-[2-(4-phenoxy-2-propylphenoxy)ethyl]-1H-indol-5-yl}acetic acid]
PPAR Activity [5]: Gamma Agonist

— patent publication US20040242459A1 (priority 2001, published 2004)
